# Columns and labels:
# cloned human M2 receptor = molecular target: T1, cloned human M2 receptor (Homo sapiens, UniProt P08172); assay: hM2 receptor GTPγS binding; assay type: biochemical; settings: CHO membranes expressing hM2, [35S]GTPγS binding
# T1 construct: purchased Perkin-Elmer RBHM2M; host or cells: CHO cell membranes
# T1 sequence (P08172 1-466): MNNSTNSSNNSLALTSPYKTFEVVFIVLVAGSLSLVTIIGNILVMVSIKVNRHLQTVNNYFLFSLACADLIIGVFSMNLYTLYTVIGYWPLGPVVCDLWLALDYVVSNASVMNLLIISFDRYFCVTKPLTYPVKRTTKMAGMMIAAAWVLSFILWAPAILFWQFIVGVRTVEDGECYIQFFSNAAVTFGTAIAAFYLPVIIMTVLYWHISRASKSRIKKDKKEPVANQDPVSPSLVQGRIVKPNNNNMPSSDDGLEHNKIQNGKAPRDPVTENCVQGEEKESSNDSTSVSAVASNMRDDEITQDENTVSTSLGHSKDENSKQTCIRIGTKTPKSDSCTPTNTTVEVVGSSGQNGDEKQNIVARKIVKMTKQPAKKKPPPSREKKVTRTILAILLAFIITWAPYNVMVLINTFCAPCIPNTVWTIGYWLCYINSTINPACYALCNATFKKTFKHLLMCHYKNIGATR
# Experimental: Membranes produced from Chinese hamster ovary cells (CHO) expressing the cloned human M2 receptor (human Muscarinic receptor subtype 2, gene bank access NM_000739), are obtained from Perkin-Elmer (RBHM2M). The membranes are thawed at 37° C., passed 3 times through a 23-gauge blunt-end needle, diluted in the GTPγS binding buffer (50 mM Hepes, 20 mM NaOH, 100 mM NaCl, 1 mM EDTA, 5 mM MgCl2, pH 7.4, 100 μM DTT). The EC50, IC50 and Emax of the compounds of the invention are evaluated from 10-point dose-response curves (three fold concentration range) done in 60 μl in 384-well non-specific binding surface plate (Corning). Ten microliters from the dose-response curves plate (5× concentration) are transferred to another 384 well plate containing 25 μl of the following: 5 μg of hM2 membranes, 500 μg of Flashblue beads (Perkin-Elmer) and GDP 25 μM. An additional 15 μl containing 3.3× (60,000 dpm) of GTPγ^35S (0.4 nM final) are added to the wells resulting in a total well volume of 50 μl. Basal and maximal stimulated [^35S]GTPγS binding are determined in absence and presence of 30 μM final of acetylcholine agonist. The membranes/beads mix are pre-incubated for 15 minutes at room temperature with 25 μM GDP prior to distribution in plates (12.5 μM final). The reversal of acetylcholine-induced stimulation (2 μM final) of [^35S]GTPγS binding is used to assay the antagonist properties (IC50) of the compounds. The plates are incubated for 60 minutes at room temperature then centrifuged at 400 rpm for 5 minutes. The radioactivity (cpm) is counted in a Trilux (Perkin-Elmer).
# Values of EC50, IC50 and Emax are obtained using sigmoidal fits of a non-linear curve-fitting program (XLfit version 4.2.2 Excel add-in version 4.2.2 build 18 math 1Q version 2.1.2 build 18) of percent stimulated [^35S]GTPγS binding vs. log(molar ligand). All pEC50 and pIC50 values are reported as arithmetic means±standard error of mean of ‘n’ independent experiments.
# [1] = molecular target: T2, hM5 (human Muscarinic receptor subtype 5) (Homo sapiens, UniProt P08912); assay: Human M5 calcium mobilization FLIPR assay; assay type: cell-based; settings: CHO cells expressing hM5, intracellular Ca2+ release
# T2 construct: expressed in transfected cells; host or cells: CHO cells (Chinese hamster ovary cells, ATCC)
# T2 sequence (P08912 1-532): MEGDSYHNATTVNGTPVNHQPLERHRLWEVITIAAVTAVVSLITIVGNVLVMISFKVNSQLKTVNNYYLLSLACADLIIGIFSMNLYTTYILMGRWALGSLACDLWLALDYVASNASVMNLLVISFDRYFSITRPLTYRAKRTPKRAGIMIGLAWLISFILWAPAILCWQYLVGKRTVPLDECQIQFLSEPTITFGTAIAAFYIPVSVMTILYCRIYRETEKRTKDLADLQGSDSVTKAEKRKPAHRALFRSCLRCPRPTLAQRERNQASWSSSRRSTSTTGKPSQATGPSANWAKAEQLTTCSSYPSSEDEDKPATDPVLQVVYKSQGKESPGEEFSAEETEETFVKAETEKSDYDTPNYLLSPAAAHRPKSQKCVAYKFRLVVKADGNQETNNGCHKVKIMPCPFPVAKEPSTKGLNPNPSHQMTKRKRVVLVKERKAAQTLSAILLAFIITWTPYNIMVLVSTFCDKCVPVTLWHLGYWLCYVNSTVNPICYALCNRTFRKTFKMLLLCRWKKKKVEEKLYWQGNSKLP
# Experimental: The compound activity in the present invention (EC50 or IC50) is measured using a 384 plate-based imaging assay that monitors drug induced intracellular Ca^2+ release in whole cells. Activation of hM1 (human Muscarinic receptor subtype 1, gene bank access NM_000738), rM1 (rat Muscarinic receptor subtype 1, gene bank access NM_080773), hM3 (human Muscarinic receptor subtype 3, gene bank access NM_000740NM_000740) and hM5 (human Muscarinic receptor subtype 5, gene bank access NM_0121258), receptors expressed in CHO cells (Chinese hamster ovary cells, ATCC) is quantified in a Molecular Devices FLIPR II™ instrument as an increase in fluorescent signal. Inhibition of hM3 and hM5 by compounds is determined by the decrease in fluorescent signal in response to 2 nM acetylcholine activation.
# Prior to experiment, the cell culture medium is removed from the plates by inversion. […] Plates are incubated at 37° C. for 60 minutes prior to start the experiment. The incubation is terminated by washing the cells four times in assay buffer, leaving a residual 25 μl buffer per well. Cell plates are then transferred to the FLIPR, ready for compound additions.
# The day of experiment, acetylcholine and compounds are diluted in assay buffer in three-fold concentration range (10 points serial dilution) for addition by FLIPR instrument. For all calcium assays, a baseline reading is taken for 10 seconds followed by the addition of 12.5 μl of compounds, resulting in a total well volume of 37.5 μl. Data is collected every second for 60 pictures and then every 6 seconds for 20 pictures prior to the addition of agonist. For hM3 and hM5, before agonist addition, a second baseline reading is taken for 10 seconds followed by the addition of 12.5 μl of agonist or buffer, producing a final volume of 50 μl. After agonist stimulation, the FLIPR continues to collect data every second for 60 pictures and then every 6 seconds for 20 pictures. The fluorescence emission is read using filter 1 (emission 510-570 nm) by the FLIPR on board CCD camera.
# Calcium mobilization output data are calculated as the maximal relative fluorescence unit (RFU) minus the minimal value for both compound and agonist reading frame (except for hM1 and rM1 using only the maximal RFU). Data are analyzed using sigmoidal fits of a non-linear curve-fitting program (XLfit version 4.2.2 Excel add-in version 4.2.2 build 18 math 1Q version 2.1.2 build 18). All pEC50 and pIC50 values are reported as arithmetic means±standard error of mean of ‘n’ independent experiments.
EC50 (cloned human M2 receptor) [µM],EC50 [1] [µM],SMILES
> 30,> 40,"CC(C)OC(=O)N1CCC(C)(N2CCC(N3C(=O)N[C@@H]4CCCC[C@@H]43)CC2)CC1 (relative stereo) [Example 13, Propan-2-yl 4-[4-[(cis)-2-oxo-3a,4,5,6,7,7a-hexahydro-3H-benzoimidazol-1-yl]-1-piperidyl]-4-methyl-piperidine-1-carboxylate]"
> 4,,"COC(=O)N1CCC(C)(N2CCC(N3C(=O)N[C@H]4CCCC[C@@H]43)CC2)C1 (mixture of isomers) [Example 10, Methyl 3-[4-[(3aS,7aS)-2-oxo-3a,4,5,6,7,7a-hexahydro-3H-benzoimidazol-1-yl]-1-piperidyl]-3-methyl-pyrrolidine-1-carboxylate]"
0.13,0.919,"CCOC(=O)N1CCC(C)(N2CCC(N3C(=O)N[C@@H]4CCCC[C@@H]43)CC2)CC1 (relative stereo) [Example 12, Ethyl 4-[4-[(cis)-2-oxo-3a,4,5,6,7,7a-hexahydro-3H-benzoimidazol-1-yl]-1-piperidyl]-4-methyl-piperidine-1-carboxylate]"
2.9,,"CCOC(=O)N1CCC(C)(N2CCC(N3C(=O)N[C@@H]4CCCC[C@H]43)CC2)C1 (mixture of isomers) [Example 11, Ethyl 3-[4-[(3aR,7aR)-2-oxo-3a,4,5,6,7,7a-hexahydro-3H-benzoimidazol-1-yl]-1-piperidyl]-3-methyl-pyrrolidine-1-carboxylate]"
1.17,0.412,"CCOC(=O)N1CCC(C)(N2CCC(N3C(=O)N[C@H]4CCCC[C@@H]43)CC2)C1 (single isomer, unassigned) [Example 22]"
0.048,,"C#CCOC(=O)N1CCC(C)(N2CCC(N3C(=O)N[C@H]4CCCC[C@@H]43)CC2)CC1 [Example 17, prop-2-ynyl 4-[4-[(3aS,7aS)-2-oxo-3a,4,5,6,7,7a-hexahydro-3H-benzimidazol-1-yl]-1-piperidyl]-4-methyl-piperidine-1-carboxylate]"
0.48,0.586,"CCOC(=O)N1CCC(C)(N2CCC(N3C(=O)N[C@@H]4CCCC[C@H]43)CC2)CC1 [Example 04, Ethyl 4-[4-[(3aR,7aR)-2-oxo-3a,4,5,6,7,7a-hexahydro-3H-benzoimidazol-1-yl]-1-piperidyl]-4-methyl-piperidine-1-carboxylate]"
0.204,,"CC#CCOC(=O)N1CCC(C)(N2CCC(N3C(=O)N[C@H]4CCCC[C@@H]43)CC2)C1 (single isomer, unassigned) [Example 19]"
> 30,> 40,"CC(C)OC(=O)N1CCC(C)(N2CCC(N3C(=O)C[C@H]4CCCC[C@@H]43)CC2)CC1 [Example 14, Propan-2-yl 4-[4-[(3aR,7aS)-2-oxo-3a,4,5,6,7,7a-hexahydro-3H-indol-1-yl]-1-piperidyl]-4-methyl-piperidine-1-carboxylate]"
> 30,> 49.2,"CC1(N2CCC(N3C(=O)N[C@@H]4CCCC[C@H]43)CC2)CCN(C(=O)C2CC2)CC1 [Example 06, (3aR,7aR)-1-[1-[1-(cyclopropanecarbonyl)-4-methyl-4-piperidyl]-4-piperidyl]-3a,4,5,6,7,7a-hexahydro-3H-benzoimidazol-2-one]"
> 15,,"CC1(N2CCC(N3C(=O)N[C@H]4CCCC[C@@H]43)CC2)CCN(C(=O)OCCF)C1 (mixture of isomers) [Example 08, 2-fluoroethyl 3-[4-[(3aS,7aS)-2-oxo-3a,4,5,6,7,7a-hexahydro-3H-benzoimidazol-1-yl]-1-piperidyl]-3-methyl-pyrrolidine-1-carboxylate]"
0.121,> 40,"CC#CCOC(=O)N1CCC(C)(N2CCC(N3C(=O)N[C@H]4CCCC[C@@H]43)CC2)CC1 [Example 16, But-2-ynyl 4-[4-[(3aS,7aS)-2-oxo-3a,4,5,6,7,7a-hexahydro-3H-benzimidazol-1-yl]-1-piperidyl]-4-methyl-piperidine-1-carboxylate]"
> 1.6,> 40,"CC1(N2CCC(N3C(=O)N[C@H]4CCCC[C@@H]43)CC2)CCN(C(=O)C2CC2)CC1 [Example 03, (3aS,7aS)-1-[1-[1-(cyclopropanecarbonyl)-4-methyl-4-piperidyl]-4-piperidyl]-3a,4,5,6,7,7a-hexahydro-3H-benzoimidazol-2-one]"
> 15,> 40,"CC1(N2CCC(N3C(=O)C[C@H]4CCCC[C@@H]43)CC2)CCN(C(=O)C2CC2)CC1 [Example 15, (3aR,7aS)-1-[1-[1-(cyclopropanecarbonyl)-4-methyl-4-piperidyl]-4-piperidyl]-3a,4,5,6,7,7a-hexahydro-3H-indol-2-one]"
4.87,> 8.41,"CCOC(=O)N1CCC(C)(N2CCC(N3C(=O)N[C@H]4CCCC[C@@H]43)CC2)C1 (single isomer, unassigned) [Example 21]"

SMILES,EC50 (cloned human M2 receptor) [µM],EC50 [1] [µM]
"CCOC(=O)N1CCC(C)(N2CCC(N3C(=O)C[C@@H]4CCCC[C@H]43)CC2)C1 (stereo in doubt) [Example 23, Ethyl 3-[4-[(3aS,7aR)-2-oxo-3a,4,5,6,7,7a-hexahydro-3H-indol-1-yl]-1-piperidyl]-3-methyl-pyrrolidine-1-carboxylate]",2.68,> 120
"CC(C)OC(=O)N1CCC(C)(N2CCC(N3C(=O)N[C@H]4CCCC[C@@H]43)CC2)CC1 [Example 02, Propan-2-yl 4-[4-[(3aS,7aS)-2-oxo-3a,4,5,6,7,7a-hexahydro-3H-benzoimidazol-1-yl]-1-piperidyl]-4-methyl-piperidine-1-carboxylate]",> 0.2,> 40

# — patent publication US8119661B2, “Piperidine derivatives and their use as muscarinic receptor modulators” (AstraZeneca AB, priority 2007, dated 2012)
